Data: PMC8037182, “Solvothermal Synthesis of Multiple Dihydropyrimidinones at a Time as Inhibitors of Eg5” (Molecules, 2021)

Target: T1, Eg5 motor protein (Homo sapiens, UniProt P52732)
T1 construct: Eg5 motor domain (amino acids 1-368) was cloned into pET22b; His-tag (C); made in house; host or cells: Escherichia coli BL21 (DE3)
T1 sequence (P52732 1-368): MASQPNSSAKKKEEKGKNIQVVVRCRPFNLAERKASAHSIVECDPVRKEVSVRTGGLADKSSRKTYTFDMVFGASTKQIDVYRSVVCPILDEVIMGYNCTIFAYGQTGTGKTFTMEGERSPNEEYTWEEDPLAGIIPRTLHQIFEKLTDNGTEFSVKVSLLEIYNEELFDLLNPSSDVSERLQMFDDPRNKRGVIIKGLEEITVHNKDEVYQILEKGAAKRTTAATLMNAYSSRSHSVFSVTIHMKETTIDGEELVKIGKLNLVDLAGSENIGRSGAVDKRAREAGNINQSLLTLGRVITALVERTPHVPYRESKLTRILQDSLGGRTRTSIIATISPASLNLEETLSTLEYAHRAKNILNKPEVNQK
Assay: microtubule-activated Eg5 motor protein ATPase assay (malachite green, OD630)
Assay type: biochemical
Conditions: for IC50: microtubule-stimulated KSP ATPase activity
Protocol: Eg5 motor domain (amino acids 1-368) was cloned into pET22b and expressed in Escherichia coli BL21 (DE3) cells.
Tubulin was purified from pig brain, as described in the literature, and stored at −60 °C in BRB80 (80 mM K-Pipes, pH 6.8, 1 mM EGTA, 1 mM MgCl2). Before the assay of Eg5 ATPase, microtubules were assembled in the presence of paclitaxel and were then separated from unassembled tubulin by centrifugation as described in the literature.
Inhibitory activities of the compounds were measured using a microtubule-activated ATPase assay. The compounds, paclitaxel stabilized microtubules, Eg5 motor protein and BRB80 were added to wells of a 96-well plate in a total reaction volume of 38.5 μL. Reactions were started by the addition of 522.11 μM ATP in a total reaction volume of 98.5 μL, incubated at 37 °C for 30 min and terminated by the addition of 15 μL of perchloric acid. The mixture was centrifuged (10,000 rpm) 10 min at room temperature. The supernatant from this centrifugation step was mixed with HCl 1 M, 33 mM malachite green, 775 mM ammonium molybdate tetrahydrate. After 10 min the absorbance was measured at 630 nm using a microplate reader (BIO-RAD iMark^TM). […] Monastrol was used as the positive control. All conditions were performed in three independent duplicate experiments and averaged data points are shown as mean values ± SD, IC50 values were calculated with SPSS17.0 software. The primary data were shown in Supplementary Materials Tables S1–S3.
A sequence of human Eg5 corresponding to amino acids 1 to 368 was amplified with polymerase chain reaction (PCR) by NOVOPRO BIOSCIENCE INC. It was cloned into pET22b introducing a C-terminal His-tag. The protein was expressed in Escherichia coli BL21 (DE3) cells for 12 h at 25 ℃ in LB containing 1mM Isopropyl-beta-D-thiogalactopyranoside (IPTG), 50 ug/ml Ampicillin. The harvested cells were lysed with Ultrasonic Processor in Binder-buffer (50 mM Tris-HCl, 350 mM NaCl, 10 mM Imidazole, pH 8.0). The clarified lysate was loaded onto a Ni-IDA -Sepharose CL-6B Affi Gel column (Sigma), washed with Washing-buffer(20 mM Tris-HCl, 350 mM NaCl, 20 mM Imidazole, pH 8.0) untill effluent OD280 value reaches baseline. Then it was eluted with Elution-buffer (20 mM Tris-HCl, 350 mM NaCl , 250 mM Imidazole, pH8.0). The buffer was exchanged to 150 mM NaCl, 20mM Tris pH 8.0 by dialysis. The protein concentration was adjusted to 2 mg/ml (measured by a Bradford assay using bovine serum albumin (BSA) as standard). Eg5368H was stored at -20 ℃.
Pig brains were cleaned of blood clots with kitchen paper, weighed, and transferred to a Waring blender. Cold (4 ℃) depolymerization buffer (DB) was added at a ratio of 1 liter/kg of brain tissue. The mixture was homogenized twice for approximately 30 s. The homogenates were then centrifuged in a SLA 1500 Sorvall rotor at 29,000g for 60 min at 4 ℃. The supernatants were pooled and supplemented with an equal volume of warm (37 ℃) high-molarity PIPES buffer (HMPB), ATP (1.5 mM final), and GTP (0.5 mM final). An equal volume (1/3 of the final volume) of pre-warmed to 37 ℃ anhydrous glycerol was added to this solution. This mixture was incubated in a 37 ℃ water bath for 1 h. The polymerized tubulin was then centrifuged in a Ti 45 Beckman rotor at 151,000g (44,000 rpm) for 30 min at 37 ℃. The resulting microtubule pellets were resuspended in 100 ml of cold DB and left for 30 min on ice. The depolymerized tubulinwas subsequently centrifuged in a Ti 45 Beckman rotor at 70,000g (30,000 rpm) for 30 min at 4 ℃. The supernatant from this centrifugation step was mixed with an equal volume of the HMPB supplemented with ATP and GTP, followed by the addition of glycerol (1/3 of the final volume) as described above. The mixture was incubated in a 37 ℃ water bath for 30 min, and the polymerized tubulin was pelleted in a Ti 45 Beckman rotor at 151,000g (44,000 rpm) for 30 min at 37 ℃. […]

SMILES | OD630 Value Mean (compound 24.24 uM) | OD630 Value Mean (compound 30.3 uM) | OD630 Value Mean (compound 60.61 uM) | OD630 Value Mean (compound 80.81 uM) | OD630 Value Mean (compound 90.91 uM) | OD630 Value Mean (compound 121.21 uM) | IC50 | OD630 Value Mean (compound 25.38 uM) | OD630 Value Mean (compound 50.76 uM) | OD630 Value Mean (compound 67.68 uM) | OD630 Value Mean (compound 76.14 uM) | OD630 Value Mean (compound 101.52 uM) | OD630 Value Mean (compound 20.2 uM) | OD630 Value Mean (compound 40.41 uM) | OD630 Value Mean (compound 53.87 uM) | OD630 Value Mean (compound 107.74 uM)
CCOc1ccccc1C1NC(=S)NC(C)=C1C(=O)Nc1ccc(Cl)cc1 (stereo not shown) [C9] | 0.221 | 0.182 | 0.163 | 0.157 | 0.156 | 0.14 | 30.2 µM |  |  |  |  |  |  |  |  | 
CCOC(=O)c1c(C2NC(=O)NC(C)=C2C(=O)Nc2ccccc2OC)[nH]c(C(=O)OC)c1C (stereo not shown) [D1] |  |  |  |  |  |  | 38.7 µM | 0.26 | 0.248 | 0.195 | 0.189 | 0.159 |  |  |  | 
CCOC(=O)c1[nH]c(C2NC(=O)NC(C)=C2C(=O)Nc2ccc(Cl)cc2)c(C(=O)OCC)c1C (stereo not shown) [D7] |  | 0.231 | 0.197 | 0.164 | 0.158 | 0.146 | 63.2 µM |  |  |  |  |  |  |  |  | 
CCOC(=O)c1[nH]c(C2NC(=S)NC(C)=C2C(=O)OC)c(C(=O)OCC)c1C (stereo not shown) [D12] |  | 0.243 | 0.191 | 0.141 | 0.129 | 0.123 | 57.4 µM |  |  |  |  |  |  |  |  | 
CCOC(=O)C1=C(C)NC(=S)NC1c1cccc(O)c1 (stereo not shown) [Monastrol, monastrol, reference compound] |  |  |  |  |  |  | 51.7 µM | 0.214 | 0.193 | 0.190 | 0.188 | 0.177 |  |  |  | 

The remaining lines, values ahead:

OD630 Value Mean (compound 24.24 uM) | OD630 Value Mean (compound 30.3 uM) | OD630 Value Mean (compound 60.61 uM) | OD630 Value Mean (compound 80.81 uM) | OD630 Value Mean (compound 90.91 uM) | OD630 Value Mean (compound 121.21 uM) | IC50 | OD630 Value Mean (compound 25.38 uM) | OD630 Value Mean (compound 50.76 uM) | OD630 Value Mean (compound 67.68 uM) | OD630 Value Mean (compound 76.14 uM) | OD630 Value Mean (compound 101.52 uM) | OD630 Value Mean (compound 20.2 uM) | OD630 Value Mean (compound 40.41 uM) | OD630 Value Mean (compound 53.87 uM) | OD630 Value Mean (compound 107.74 uM) | SMILES
 |  | 0.219 | 0.137 |  |  | 67.3 µM |  |  |  |  |  | 0.322 | 0.279 | 0.26 |  | CCOC(=O)c1c(C2NC(=O)NC(C)=C2C(=O)Nc2ccccc2C)[nH]c(C(=O)OC)c1C (stereo not shown) [D2]
0.218 | 0.182 | 0.146 |  | 0.122 | 0.115 | 53.6 µM |  |  |  |  |  |  |  |  |  | CCOC(=O)c1[nH]c(C2NC(=O)NC(C)=C2C(=O)Nc2ccccc2OC)c(C(=O)OC)c1C (stereo not shown) [D3]
0.198 | 0.174 | 0.158 |  | 0.148 | 0.134 | 71.3 µM |  |  |  |  |  |  |  |  |  | CCOC(=O)c1[nH]c(C2NC(=O)NC(C)=C2C(=O)Nc2ccccc2C)c(C(=O)OC)c1C (stereo not shown) [D4]
 |  | 0.225 | 0.197 | 0.191 | 0.133 | 64.4 µM |  |  |  |  |  |  |  |  | 0.139 | CCOC(=O)c1c(C2NC(=O)NC(C)=C2C(=O)Nc2ccccc2)[nH]c(C(=O)OC)c1C (stereo not shown) [D10]
 | 0.25 | 0.187 | 0.151 | 0.138 | 0.14 | 71.9 µM |  |  |  |  |  |  |  |  |  | COC(=O)c1[nH]c(C2NC(=S)NC(C)=C2C(=O)c2ccccc2)c(C(=O)OC)c1C (stereo not shown) [D14]
